The results in this text go back to US9340590B2 (priority 2011, dated 2016).

Positions of bridges follow the written chain, without caps; N, C: chain ends. Residues, ends and D or L forms follow the SMILES beside them.

The target in one series is hNav1.4 (Homo sapiens, UniProt P35499). In words: cell-based. As to conditions: IonWorks Quattro; clamped to −110 mV, depolarized to −10 mV, 5 min after compound; n=2; read-out: IWQ Use Nav1.4. (The patch-clamp technique gives a direct electrical read-out from membranes.)
The target of a further series is hNav1.7 (Homo sapiens, UniProt Q15858). In words: cell-based. The format is cell-based. As to conditions: IonWorks Quattro; clamped to −110 mV, depolarized to −10 mV, 5 min after compound; n=2; read-out: IWQ Use Nav1.7.
The next series has as its target hNav1.5 (Homo sapiens, UniProt Q14524). In words: cell-based. Particulars: IonWorks Quattro; clamped to −110 mV, depolarized to −10 mV, 5 min after compound; n=2; read-out: IWQ Use Nav1.5.
The target in a further series is hNav1.3 (Homo sapiens, UniProt Q9NY46). In words: cell-based. Particulars: IonWorks Quattro; clamped to −110 mV, depolarized to −10 mV, 5 min after compound; n=2; read-out: IWQ Use Nav1.3.
Series [1] concerns locomotor activity in male CD-1 mice. Particulars: 5 mg/kg s.c.; for total basic movement / total fine movement / total rearing / total time rearing: later studies (FIGS. 99-110), 1-hour pre-treatment.

hNav1.3, sequence (Q9NY46 whole entry, looked up): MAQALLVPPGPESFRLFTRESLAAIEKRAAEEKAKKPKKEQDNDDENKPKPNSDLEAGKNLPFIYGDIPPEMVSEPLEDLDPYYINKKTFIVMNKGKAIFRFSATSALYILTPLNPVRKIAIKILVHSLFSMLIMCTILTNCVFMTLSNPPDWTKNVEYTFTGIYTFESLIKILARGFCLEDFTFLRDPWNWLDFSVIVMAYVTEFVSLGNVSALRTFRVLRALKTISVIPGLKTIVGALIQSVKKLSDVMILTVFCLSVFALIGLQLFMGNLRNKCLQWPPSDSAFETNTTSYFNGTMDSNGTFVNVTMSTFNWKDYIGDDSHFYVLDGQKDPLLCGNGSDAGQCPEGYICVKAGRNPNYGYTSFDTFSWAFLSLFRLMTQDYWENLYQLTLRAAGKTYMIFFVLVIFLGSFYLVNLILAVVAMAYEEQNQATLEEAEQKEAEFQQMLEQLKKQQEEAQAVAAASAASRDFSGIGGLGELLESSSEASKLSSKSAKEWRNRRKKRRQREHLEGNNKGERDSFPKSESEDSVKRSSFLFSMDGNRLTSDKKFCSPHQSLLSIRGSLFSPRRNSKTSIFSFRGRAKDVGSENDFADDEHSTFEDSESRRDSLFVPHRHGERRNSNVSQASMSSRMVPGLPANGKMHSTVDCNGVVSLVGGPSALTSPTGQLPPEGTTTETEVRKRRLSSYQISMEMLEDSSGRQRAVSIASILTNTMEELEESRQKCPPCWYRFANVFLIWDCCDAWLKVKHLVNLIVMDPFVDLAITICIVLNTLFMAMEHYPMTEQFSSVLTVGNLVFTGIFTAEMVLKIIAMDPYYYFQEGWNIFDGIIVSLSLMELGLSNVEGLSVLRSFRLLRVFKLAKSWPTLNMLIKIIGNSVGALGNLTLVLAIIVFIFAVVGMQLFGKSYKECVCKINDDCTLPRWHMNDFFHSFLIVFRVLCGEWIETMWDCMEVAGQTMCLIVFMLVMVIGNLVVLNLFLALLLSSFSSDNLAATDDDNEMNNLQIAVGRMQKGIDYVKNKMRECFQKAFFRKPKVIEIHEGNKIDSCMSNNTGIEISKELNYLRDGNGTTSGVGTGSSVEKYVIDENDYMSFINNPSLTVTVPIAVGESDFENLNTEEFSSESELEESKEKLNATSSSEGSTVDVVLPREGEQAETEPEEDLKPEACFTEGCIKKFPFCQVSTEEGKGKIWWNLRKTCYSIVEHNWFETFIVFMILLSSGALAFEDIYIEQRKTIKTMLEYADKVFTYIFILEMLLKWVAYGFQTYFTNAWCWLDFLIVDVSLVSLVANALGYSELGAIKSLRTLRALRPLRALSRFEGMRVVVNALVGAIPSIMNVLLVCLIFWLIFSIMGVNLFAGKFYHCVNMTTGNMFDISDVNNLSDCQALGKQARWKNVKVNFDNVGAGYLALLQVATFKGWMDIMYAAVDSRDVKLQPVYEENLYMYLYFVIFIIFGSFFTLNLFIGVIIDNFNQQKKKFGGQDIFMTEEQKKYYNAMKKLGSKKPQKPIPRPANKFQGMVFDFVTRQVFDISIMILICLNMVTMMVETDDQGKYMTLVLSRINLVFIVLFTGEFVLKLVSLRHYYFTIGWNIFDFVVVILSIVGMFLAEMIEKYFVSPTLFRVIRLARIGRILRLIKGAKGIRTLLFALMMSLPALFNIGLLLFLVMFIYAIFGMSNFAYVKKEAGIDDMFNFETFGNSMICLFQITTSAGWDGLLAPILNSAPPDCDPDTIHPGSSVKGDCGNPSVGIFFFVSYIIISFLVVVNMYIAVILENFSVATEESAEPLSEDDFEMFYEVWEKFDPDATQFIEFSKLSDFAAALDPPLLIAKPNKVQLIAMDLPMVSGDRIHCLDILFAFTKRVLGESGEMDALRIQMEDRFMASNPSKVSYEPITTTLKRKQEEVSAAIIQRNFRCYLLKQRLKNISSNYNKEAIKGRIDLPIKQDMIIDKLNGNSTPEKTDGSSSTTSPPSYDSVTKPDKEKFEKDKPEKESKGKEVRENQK
hNav1.4, sequence (P35499 whole entry, looked up): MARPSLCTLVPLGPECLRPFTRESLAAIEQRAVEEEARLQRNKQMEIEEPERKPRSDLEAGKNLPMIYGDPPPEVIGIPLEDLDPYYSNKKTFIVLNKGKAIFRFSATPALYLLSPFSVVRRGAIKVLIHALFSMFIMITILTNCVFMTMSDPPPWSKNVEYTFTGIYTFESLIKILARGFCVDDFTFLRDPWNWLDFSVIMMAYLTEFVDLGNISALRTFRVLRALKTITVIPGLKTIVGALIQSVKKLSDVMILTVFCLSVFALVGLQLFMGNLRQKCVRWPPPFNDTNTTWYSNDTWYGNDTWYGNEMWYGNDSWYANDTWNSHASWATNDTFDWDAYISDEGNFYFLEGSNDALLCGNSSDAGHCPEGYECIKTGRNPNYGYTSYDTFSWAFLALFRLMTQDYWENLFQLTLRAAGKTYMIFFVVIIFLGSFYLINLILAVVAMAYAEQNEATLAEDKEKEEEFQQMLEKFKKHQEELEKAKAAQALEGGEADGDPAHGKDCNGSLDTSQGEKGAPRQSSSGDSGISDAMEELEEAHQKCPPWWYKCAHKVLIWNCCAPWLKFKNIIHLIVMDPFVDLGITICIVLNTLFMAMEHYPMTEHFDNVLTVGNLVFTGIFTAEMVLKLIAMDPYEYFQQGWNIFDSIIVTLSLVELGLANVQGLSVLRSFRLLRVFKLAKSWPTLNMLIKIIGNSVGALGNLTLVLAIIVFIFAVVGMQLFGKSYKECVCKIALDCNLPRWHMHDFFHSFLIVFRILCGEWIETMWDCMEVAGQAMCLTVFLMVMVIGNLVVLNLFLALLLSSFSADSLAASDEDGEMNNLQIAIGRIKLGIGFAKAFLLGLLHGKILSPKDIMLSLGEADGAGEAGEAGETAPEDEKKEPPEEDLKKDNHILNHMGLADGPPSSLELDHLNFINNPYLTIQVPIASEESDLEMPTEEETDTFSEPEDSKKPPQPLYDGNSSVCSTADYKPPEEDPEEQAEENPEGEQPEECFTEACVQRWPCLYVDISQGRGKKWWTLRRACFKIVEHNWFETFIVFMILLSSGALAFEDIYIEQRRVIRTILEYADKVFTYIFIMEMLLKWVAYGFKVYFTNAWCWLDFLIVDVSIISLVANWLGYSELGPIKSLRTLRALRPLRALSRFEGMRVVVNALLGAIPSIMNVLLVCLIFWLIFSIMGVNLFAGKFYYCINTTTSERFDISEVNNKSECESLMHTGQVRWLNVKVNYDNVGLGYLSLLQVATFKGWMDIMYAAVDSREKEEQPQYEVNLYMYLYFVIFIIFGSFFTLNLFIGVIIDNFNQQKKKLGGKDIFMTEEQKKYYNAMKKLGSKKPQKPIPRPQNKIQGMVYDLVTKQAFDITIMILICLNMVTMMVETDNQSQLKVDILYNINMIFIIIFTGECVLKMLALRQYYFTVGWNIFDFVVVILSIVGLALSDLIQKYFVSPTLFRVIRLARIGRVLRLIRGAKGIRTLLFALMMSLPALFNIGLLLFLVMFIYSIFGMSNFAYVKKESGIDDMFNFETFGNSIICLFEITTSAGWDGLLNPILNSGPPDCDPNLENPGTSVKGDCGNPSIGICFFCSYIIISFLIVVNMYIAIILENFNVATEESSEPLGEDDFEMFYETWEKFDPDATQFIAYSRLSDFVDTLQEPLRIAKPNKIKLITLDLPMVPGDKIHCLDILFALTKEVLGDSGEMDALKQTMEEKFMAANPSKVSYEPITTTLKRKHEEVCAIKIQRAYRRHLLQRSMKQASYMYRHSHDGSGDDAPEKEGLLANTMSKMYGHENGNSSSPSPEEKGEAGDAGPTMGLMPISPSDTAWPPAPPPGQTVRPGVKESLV

Consider `CC(C)C[C@H](NC(=O)[C@H](CCCCN)NC(=O)[C@H](Cc1ccc(O)cc1)NC(=O)[C@H](CCCCN)NC(=O)[C@@H]1CSSC[C@@H]2NC(=O)[C@H](CCCCN)NC(=O)[C@H](CC(=O)O)NC(=O)[C@H](CC(N)=O)NC(=O)[C@H](CC(=O)O)NC(=O)[C@@H]3CCCN3C(=O)[C@H](CC(=O)O)NC(=O)[C@@H]3CSSC[C@H](NC(=O)[C@H](CCCCN)NC(=O)[C@H](Cc4ccc(O)cc4)NC(=O)CNC(=O)[C@H](CCC(=O)O)NC(=O)[C@H](CSSC[C@H](NC(=O)[C@@H](N)CC(=O)O)C(=O)N[C@@H](CC(C)C)C(=O)NCC(=O)N[C@@H](Cc4c[nH]c5ccccc45)C(=O)N[C@@H](Cc4ccccc4)C(=O)N[C@@H](CCCCN)C(=O)NCC(=O)N3)NC2=O)C(=O)N[C@@H](CC(N)=O)C(=O)N[C@@H](CCCNC(=N)N)C(=O)N[C@@H](CCCNC(=N)N)C(=O)N[C@@H](CC(=O)O)C(=O)N[C@@H](CCCCN)C(=O)N[C@@H](Cc2c[nH]c3ccccc23)C(=O)N1)C(N)=O` [SEQ ID NO: 468] (H-DCLGWFKGCDPDNDKCCEGYKCNRRDKWCKYKL-NH2; disulfide 2-17, 9-22, 16-29), for which the IC50 at hNav1.4 turned out to be 20 µM; at hNav1.7, 8.93 µM; at hNav1.5, 7.8 µM; at hNav1.3, 9.37 µM.
On the same counts, the results for `CC(C)C[C@H](NC(=O)[C@H](CCCCN)NC(=O)[C@H](Cc1ccc(O)cc1)NC(=O)[C@H](CCCCN)NC(=O)[C@@H]1CSSC[C@@H]2NC(=O)[C@H](CCCCN)NC(=O)[C@H](CC(=O)O)NC(=O)[C@H](CC(N)=O)NC(=O)[C@H](CC(=O)O)NC(=O)[C@@H]3CCCN3C(=O)[C@H](CC(=O)O)NC(=O)[C@@H]3CSSC[C@H](NC(=O)[C@H](CCCCN)NC(=O)[C@H](Cc4ccc(O)cc4)NC(=O)[C@H](CC(N)=O)NC(=O)[C@H](CCC(=O)O)NC(=O)[C@H](CSSC[C@H](NC(=O)[C@@H](N)CC(=O)O)C(=O)N[C@@H](CC(C)C)C(=O)NCC(=O)N[C@@H](Cc4c[nH]c5ccccc45)C(=O)N[C@@H](Cc4ccccc4)C(=O)N[C@@H](CCCCN)C(=O)NCC(=O)N3)NC2=O)C(=O)N[C@@H](CC(N)=O)C(=O)N[C@@H](CCCNC(=N)N)C(=O)N[C@@H](CCCNC(=N)N)C(=O)N[C@@H](CCC(=O)O)C(=O)N[C@@H](CCC(N)=O)C(=O)N[C@@H](Cc2c[nH]c3ccccc23)C(=O)N1)C(N)=O` [SEQ ID NO: 469] (H-DCLGWFKGCDPDNDKCCENYKCNRREQWCKYKL-NH2; disulfide 2-17, 9-22, 16-29) are 11 µM, 9.25 µM, 10.4 µM and 4.92 µM.
Regarding `CC(C)C[C@@H]1NC(=O)[C@@H](NC(=O)[C@@H](N)CC(=O)O)CSSC[C@@H]2NC(=O)[C@@H]3CSSC[C@@H](C(=O)N[C@@H](CCCCN)C(=O)N[C@@H](Cc4ccc(O)cc4)C(=O)N[C@@H](CCCCN)C(=O)N[C@@H](CC(C)C)C(=O)N[C@@H](Cc4c[nH]c5ccccc45)C(=O)N[C@@H](CCCCN)C(=O)O)NC(=O)[C@H](Cc4c[nH]c5ccccc45)NC(=O)[C@H](CCCCN)NC(=O)[C@H](CC(=O)O)NC(=O)[C@H](CCCNC(=N)N)NC(=O)[C@H](CCCNC(=N)N)NC(=O)[C@H](CC(N)=O)NC(=O)[C@H](CSSC[C@H](NC(=O)CNC(=O)[C@H](CCCCN)NC(=O)[C@H](Cc4ccccc4)NC(=O)[C@H](Cc4c[nH]c5ccccc45)NC(=O)CNC1=O)C(=O)N[C@@H](CC(=O)O)C(=O)N1CCC[C@H]1C(=O)N[C@@H](CC(=O)O)C(=O)N[C@@H](CC(N)=O)C(=O)N[C@@H](CC(=O)O)C(=O)N[C@@H](CCCCN)C(=O)N3)NC(=O)[C@H](CCCCN)NC(=O)[C@H](Cc1ccc(O)cc1)NC(=O)[C@H](CC(N)=O)NC(=O)[C@H](CCC(=O)O)NC2=O` [SEQ ID NO: 473] (H-DCLGWFKGCDPDNDKCCENYKCNRRDKWCKYKLWK-OH; disulfide 2-17, 9-22, 16-29), the IC50 at hNav1.4 turned out to be 10 µM; on hNav1.7, 10.4 µM; on hNav1.5 it was 7.6 µM; at hNav1.3 it was 3.5 µM.
With `CC(C)C[C@@H]1NC(=O)[C@@H](NC(=O)[C@@H](N)CC(=O)O)CSSC[C@@H]2NC(=O)[C@@H]3CSSC[C@@H](C(=O)N[C@@H](CCCCN)C(=O)N[C@@H](Cc4ccc(O)cc4)C(=O)N[C@@H](CCCCN)C(=O)N[C@@H](CC(C)C)C(=O)N[C@@H](Cc4c[nH]c5ccccc45)C(=O)O)NC(=O)[C@H](Cc4c[nH]c5ccccc45)NC(=O)[C@H](CCCCN)NC(=O)[C@H](CC(=O)O)NC(=O)[C@H](CCCNC(=N)N)NC(=O)[C@H](CCCNC(=N)N)NC(=O)[C@H](CC(N)=O)NC(=O)[C@H](CSSC[C@H](NC(=O)CNC(=O)[C@H](CCCCN)NC(=O)[C@H](Cc4ccccc4)NC(=O)[C@H](Cc4c[nH]c5ccccc45)NC(=O)CNC1=O)C(=O)N[C@@H](CC(=O)O)C(=O)N1CCC[C@H]1C(=O)N[C@@H](CC(=O)O)C(=O)N[C@@H](CC(N)=O)C(=O)N[C@@H](CC(=O)O)C(=O)N[C@@H](CCCCN)C(=O)N3)NC(=O)[C@H](CCCCN)NC(=O)[C@H](Cc1ccc(O)cc1)NC(=O)[C@H](CC(N)=O)NC(=O)[C@H](CCC(=O)O)NC2=O` [SEQ ID NO: 474] (H-DCLGWFKGCDPDNDKCCENYKCNRRDKWCKYKLW-OH; disulfide 2-17, 9-22, 16-29), the IC50 at hNav1.4 turned out to be 10.5 µM; on hNav1.7, 4 µM; on hNav1.5, 7.9 µM; on hNav1.3, 1.4 µM.
In the case of `CC[C@H](C)[C@@H]1NC(=O)[C@@H]2CSSC[C@@H]3NC(=O)[C@H](C(C)C)NC(=O)[C@H](CC(C)C)NC(=O)[C@H](CC(N)=O)NC(=O)[C@@H]4CCCN4C(=O)[C@H](CCCNC(=N)N)NC(=O)[C@H](CSSC[C@H](NC(=O)[C@@H](N)CC(=O)O)C(=O)N[C@@H](CC(C)C)C(=O)NCC(=O)N[C@@H](Cc4ccccc4)C(=O)N[C@@H](CCSC)C(=O)N[C@@H](CCCNC(=N)N)C(=O)N[C@@H](CCCCN)C(=O)N2)NC(=O)[C@H](CSSC[C@@H](C(=O)N[C@@H](CCCCN)C(=O)N[C@@H](Cc2ccc(O)cc2)C(=O)N[C@H](C(=O)N[C@@H](Cc2ccccc2)C(N)=O)C(C)C)NC(=O)[C@H](Cc2c[nH]c4ccccc24)NC(=O)[C@H](CCC(=O)O)NC(=O)[C@H](Cc2cnc[nH]2)NC(=O)[C@H]([C@@H](C)O)NC(=O)[C@H](CCCNC(=N)N)NC(=O)[C@H](CO)NC3=O)NC(=O)[C@H](CCCCN)NC(=O)[C@H](CC(=O)O)NC(=O)[C@H](CC(N)=O)NC(=O)[C@H](CC(=O)O)NC(=O)[C@@H]2CCCN2C1=O` [[Glu28]GpTx-1(1-34)] (H-DCLGFMRKCIPDNDKCCRPNLVCSRTHEWCKYVF-NH2; disulfide 2-17, 9-23, 16-30), in series [1], the “locomotor activity in the open field analysis” value is “significantly reduced locomotor activity”, the total basic movement result is listed as “significantly reduced”, the total fine movement result is “significantly reduced” and the total rearing result is recorded as “significantly reduced”. For the same compound, the total time rearing entry in series [1] was “significantly reduced”.
Take `CC[C@H](C)[C@@H]1NC(=O)[C@@H]2CSSC[C@@H]3NC(=O)[C@H](C(C)C)NC(=O)[C@H](CC(C)C)NC(=O)[C@H](CC(N)=O)NC(=O)[C@@H]4CCCN4C(=O)[C@H](CCCNC(=N)N)NC(=O)[C@H](CSSC[C@H](NC(=O)[C@@H](N)CC(=O)O)C(=O)N[C@@H](CC(C)C)C(=O)NCC(=O)N[C@@H](Cc4ccccc4)C(=O)N[C@@H](CCSC)C(=O)N[C@@H](CCCNC(=N)N)C(=O)N[C@@H](CCCCN)C(=O)N2)NC(=O)[C@H](CSSC[C@@H](C(=O)N[C@@H](CCCCN)C(=O)N[C@@H](Cc2ccc(O)cc2)C(=O)N[C@H](C(=O)N[C@@H](Cc2ccccc2)C(N)=O)C(C)C)NC(=O)[C@H](CCC(=O)O)NC(=O)[C@H](CCCCN)NC(=O)[C@H](Cc2cnc[nH]2)NC(=O)[C@H]([C@@H](C)O)NC(=O)[C@H](CCCNC(=N)N)NC(=O)[C@H](CO)NC3=O)NC(=O)[C@H](CCCCN)NC(=O)[C@H](CC(=O)O)NC(=O)[C@H](CC(N)=O)NC(=O)[C@H](CC(=O)O)NC(=O)[C@@H]2CCCN2C1=O` [[Glu29]GpTx-1(1-34)] (H-DCLGFMRKCIPDNDKCCRPNLVCSRTHKECKYVF-NH2; disulfide 2-17, 9-23, 16-30): in series [1], the total basic movement result was “did not significantly decrease”, the total fine movement result was “not significantly affected”, the total rearing result was “did not significantly decrease” and the total time rearing entry is on record as “not significantly affected”.
